Assay results: US20100273656A1, “COMPOSITION AND METHOD FOR SELECTIVE HERBICIDE” (priority 2002, published 2010)

Experiments:
[1] = test system: dandelions; assay: Example 4 effect of pH on FeHEDTA, greenhouse dandelions; assay type: in vivo, Taraxacum officinale; conditions: for Dead (#/10): 8 + 5 days after spraying
Experimental: (§1) The following non-limiting examples serve to further describe the invention. Unless otherwise specified, all of the iron solutions were made using the same molar concentration of iron ion as chelating agent. All of the outside tests were done on areas of mixed grass and dandelions that were at least 2 months old. For the greenhouse tests, dandelions were grown in a commercial greenhouse mix, using supplemental lighting and heating. Each plant was grown in a 2¼ inch pot to a minimum diameter of 20 cm. All of the solutions were sprayed onto the plants at a rate of 100 ml/m^2. The ferrous sulfate formulations that were used in examples 1, 2, 8 and 9 contained 1% iron (180 mM), 18 mM EDTA, 1% citric acid and 0.5% urea. In all of the examples, the amount of iron is identified in brackets as the percent iron on a weight basis.
(§2) All plant damage was assessed using a qualitative rating scale from 0 to 9.
This test compared the effects of FeHEDTA at a range of pH values to potted, greenhouse-grown dandelions. All of the solutions were applied at 0.2% Fe^+3 (35.8 mM). Ammonium sulfate was added at 2%. The plants were re-sprayed after 8 days.

[2] = test system: grass; assay: Example 2 field test of FeEDDS and FeHEDTA at pH 3 and 7, grass; assay type: in vivo; conditions: in vivo
Experimental: as §1, §2
The FeEDDS and FeHEDTA solutions contained 0.2% Fe^+3 (35.8 mM). The ferrous sulfate contained 1% Fe^+2 (179.1 mM). The solutions were sprayed at a rate of 0.1 L/m^2 onto 2 plots of 0.5 m^2 of mixed grass and dandelions. Observations were made 4 days after spraying.

[3] = test system: dandelions; assay: Example 10 FeHEDTA at 0.1% and 0.2% Fe on potted dandelions; assay type: in vivo, Taraxacum officinale
Experimental: This test investigated using 0.1% (17.9 mM) and 0.2% (35.8 mM) iron, as FeHEDTA, to kill potted dandelions. The solutions contained 10% excess chelating agent.
Small (12 cm diameter) to medium (20 cm diameter) sized, greenhouse-grown dandelions were used. These sizes of dandelions are typically found in lawns. The plants were re-sprayed 7 days after the first spray.

[4] = test system: dandelion; assay: Example 21 Fe chelates with Killex, dandelion; assay type: in vivo, Taraxacum officinale; conditions: A29 = 29 days after treatment
Experimental: (§3) Plants were fertilized with an all purpose water-soluble fertilizer mix of 20-20-20 (N-P-K; Plant-Prod®) as needed. All broadleaf weeds were grown individually in a 2¼-inch pot until they were a suitable size for herbicide tests (actual weed size is reported in examples below). Perennial ryegrass was also grown in 2¼-inch pots, however many grass seeds were sown in the pot to simulate a small section of turf. Grass plants were continually trimmed to a height of 4 cm, simulating that of a homeowner's lawn. For field tests, plots ¼ m^2 in size were marked out in areas containing the targeted broadleaf weed species growing in turf grass. Plots were continually mowed to simulate a homeowner's lawn. […] In all of the examples, the amounts of the various herbicide components are identified as a percent on a weight basis.
(§4) Killex® (Scotts Canada, Ltd., Ontario, Canada) is a commonly used selective lawn herbicide and was used as the commercial herbicide for herbicide combinations. The labeled dilution and application rates for Killex® are 6 ml into 1 L of solution (0.6%) applied at 200 ml/m^2.
(§5) All visual plant damage assessments were made using a quantitative rating scale; percent control relative to the untreated check (0=no effect; 100=plant death).
Materials and Methods: This trial was conducted in the greenhouse. […] Phytotoxicity (%) was assessed 29 days after treatment (A29).

[5] = test system: white clover; assay: Example 17 iron chelates with Killex, white clover; assay type: in vivo
Experimental: as §3, §4, §5
(§6) Materials and Methods: This trial was conducted in the greenhouse. Nine pots of white clover and 10 pots of perennial ryegrass were selected for each treatment. Herbicidal solutions were prepared using deionized water. The treatments were applied using a handheld trigger sprayer at 200 ml/m^2. All treatments were applied once. Phytotoxicity (%) was assessed 4, 7, and 14 days after application (A4, A7, and A14).

[6] = test system: perennial ryegrass; assay: Example 17 iron chelates with Killex, perennial ryegrass; assay type: in vivo
Experimental: as §3, §4, §5, §6

[7] = test system: chickweed scarlet pimpernel (Anagallis arvensis); assay: Example 12 FeHEDTA field test, chickweed scarlet pimpernel; assay type: in vivo; conditions: for Survival of Chickweed Plants (%): day 7/day 0
Experimental: This test evaluated FeHEDTA with 0.15% and 0.2% Fe for controlling the chickweed scarlet pimpernel (Anagallis arvensis) and dandelion (Taraxacum officinale). The solution contained 1.3 times the molar amount of chelating agent as iron. Field areas of well established chickweed and dandelion (0.5 m^2) were sprayed at a rate of 100 ml/m^2.

O=C([O-])CN(CCO)CCN(CC(=O)[O-])CC(=O)[O-].[Fe+3] [FeHEDTA]
Plant Damage (0 to 9) ([1]; 8 + 5 days after spraying (re-sprayed after 8 days), listed as FeHEDTA pH 3 (0.2% Fe)): 6.8 0 to 9 | Plant Damage (0 to 9) ([1]; 8 + 5 days after spraying (re-sprayed after 8 days), listed as FeHEDTA pH 5 (0.2% Fe)): 5.4 0 to 9 | Plant Damage (0 to 9) ([1]; 8 + 5 days after spraying (re-sprayed after 8 days), listed as FeHEDTA pH 7 (0.2% Fe)): 5.1 0 to 9 | Plant Damage (0 to 9) ([1]; 8 + 5 days after spraying (re-sprayed after 8 days), listed as FeHEDTA pH 9 (0.2% Fe)): 3.6 0 to 9 | Plant Damage (0 to 9) ([1]; 8 + 5 days after spraying (re-sprayed after 8 days), listed as FeHEDTA pH 11 (0.2% Fe)): 6.6 0 to 9 | Dead (#/10) ([1]; listed as FeHEDTA pH 3 (0.2% Fe)): 5 #/10 | Dead (#/10) ([1]; listed as FeHEDTA pH 5 (0.2% Fe)): 3 #/10 | Dead (#/10) ([1]; listed as FeHEDTA pH 7 (0.2% Fe)): 2 #/10 | Dead (#/10) ([1]; listed as FeHEDTA pH 9 (0.2% Fe)): 1 #/10 | Dead (#/10) ([1]; listed as FeHEDTA pH 11 (0.2% Fe)): 5 #/10 | Plant Damage (0 to 9) ([1]; 7 days after spraying, listed as FeHEDTA pH 3 (0.2% Fe)): 3.2 0 to 9 | Plant Damage (0 to 9) ([1]; 7 days after spraying, listed as FeHEDTA pH 5 (0.2% Fe)): 2.6 0 to 9 | Plant Damage (0 to 9) ([1]; 7 days after spraying, listed as FeHEDTA pH 7 (0.2% Fe)): 1.9 0 to 9 | Plant Damage (0 to 9) ([1]; 7 days after spraying, listed as FeHEDTA pH 9 (0.2% Fe)): 2.0 0 to 9 | Plant Damage (0 to 9) ([1]; 7 days after spraying, listed as FeHEDTA pH 11 (0.2% Fe)): 3.8 0 to 9 | Grass Damage (0 to 9) ([2]; pH 2.6): 0.0 0 to 9 | Grass Damage (0 to 9) ([2]; pH 7): 1.0 0 to 9 | susceptibility of dandelions, in words ([3]; 12 to 20 cm diameter dandelions): very susceptible | Dead Dandelions (#/10) ([3]; dandelion diameter 12 cm, 7 + 6 days (re-sprayed after 7 days)): 10 #/10 | Dead Dandelions (#/10) ([3]; dandelion diameter 12 cm, 6 days after spraying, listed as FeHEDTA (0.1% Fe)): 2 #/10 | Dead Dandelions (#/10) ([3]; dandelion diameter 12 cm, 6 days after spraying, listed as FeHEDTA (0.2% Fe)): 8 #/10 | Dead Dandelions (#/10) ([3]; dandelion diameter 16 cm, 7 + 6 days, listed as FeHEDTA (0.1% Fe)): 3 #/10 | Dead Dandelions (#/10) ([3]; dandelion diameter 16 cm, 7 + 6 days, listed as FeHEDTA (0.2% Fe)): 10 #/10 | Dead Dandelions (#/10) ([3]; dandelion diameter 16 cm, 6 days after spraying, listed as FeHEDTA (0.1% Fe)): 1 #/10 | Dead Dandelions (#/10) ([3]; dandelion diameter 16 cm, 6 days after spraying, listed as FeHEDTA (0.2% Fe)): 3 #/10 | Dead Dandelions (#/10) ([3]; dandelion diameter 20 cm, 7 + 6 days, listed as FeHEDTA (0.1% Fe)): 3 #/10 | Dead Dandelions (#/10) ([3]; dandelion diameter 20 cm, 7 + 6 days, listed as FeHEDTA (0.2% Fe)): 8 #/10 | Dead Dandelions (#/10) ([3]; dandelion diameter 20 cm, 6 days after spraying, listed as FeHEDTA (0.1% Fe)): 0 #/10 | Dead Dandelions (#/10) ([3]; dandelion diameter 20 cm, 6 days after spraying, listed as FeHEDTA (0.2% Fe)): 1 #/10 | Phytotoxicity (%) against dandelion [4]: 24% | Phytotoxicity (%) against white clover ([5]; A4 = 4 days after application, 0=no effect, 100=plant death): 22% | Phytotoxicity (%) against white clover ([5]; A7 = 7 days after application): 19% | Phytotoxicity (%) against white clover ([5]; A14 = 14 days after application): 15% | Phytotoxicity (%) against perennial ryegrass ([6]; A4): 8% | Phytotoxicity (%) against perennial ryegrass ([6]; A7): 7% | Phytotoxicity (%) against perennial ryegrass ([6]; A14): 1% | Chickweed Plants (#/0.5 m^2) ([7]; 7 days after spraying, listed as FeHEDTA (0.15% Fe)): 8 #/0.5 m^2 | Chickweed Plants (#/0.5 m^2) ([7]; 7 days after spraying, listed as FeHEDTA (0.20% Fe)): 4 #/0.5 m^2 | numbers of chickweed plants, in words ([7]; Example 12, text): significantly reduced | Chickweed Plants (#/0.5 m^2) ([7]; day 0, listed as FeHEDTA (0.15% Fe)): 15 #/0.5 m^2 | Chickweed Plants (#/0.5 m^2) ([7]; day 0, listed as FeHEDTA (0.20% Fe)): 25 #/0.5 m^2 | Survival of Chickweed Plants (%) ([7]; listed as FeHEDTA (0.15% Fe)): 53% | Survival of Chickweed Plants (%) ([7]; listed as FeHEDTA (0.20% Fe)): 16%
